Test results as given in patent publication US7101902B2, “2-guanidinylimidazolidinedione compounds and methods of making and using thereof” (The United States of America as represented by the …, priority 2003, dated 2006).
Values joined by “and” are separate entries in the source; they are usually repeats but may differ in a detail not shown here. Identical values can stand only once. “Also recorded” adds a separate entry of the source.

Legend:
[1] = tested on: Plasmodium yoelii (17×); assay: Sporozoite induced test in mouse (causal prophylactic activity); format: in vivo; details: sporozoite challenged CD-1 mice; single dose 4 hours before inoculation; oral administration
Method: The causal prophylactic antimalarial activity of the new carbamate derivatives were assessed in a sporozoites challenged mouse model according to the following protocol and the results are shown in Table 4 and Table 5.
Each compound was ground with a mortar and pestle and suspended in 0.5% hydroxyethylcellulose and 0.1% Tween 80 for compounds to be administered PO and those given SC were suspended in peanut oil. Each compound is prepared at 3 different dose levels.
Compounds were administered either PO or SC to mice once 4 hours before inoculation of sporozoites.
Four-week-old male CD-1 mice, purchased from Charles River and weighing about 16 to about 17 grams were placed 5 per cage and allowed to acclimate for 4 days before being treated and then inoculated with sporozoites. They were fed food and water ad-lib and maintained at 76° F. with 12 hour light and 12 hour darkness. The cages and water bottles were changed biweekly. The mice are weighed on Days 0, 3 and 6 then biweekly when blood films were taken.
Plasmodium yoelii (17×) was used to infect mice that will be used to infect the mosquitoes.
Mice were given a single dose of test compound 4 hours before being inoculated intraperitoneally with 2.5×10^5 sporozoites of Plasmodium yoelii on Day 0. Whole body weights were taken on Day 0 and Day 6 then twice a week for 31 days. A blood film was taken on Day 5 and then twice a week for 31 days. Mice loosing greater than about 20% of their body weight were sacrificed. All mice alive on Day 31 with no parasites in a blood film were considered cured. Donor mice used to infect the mosquitoes were infected with 2.5×10^4 parasitized erythrocytes. The mosquitoes were allowed to feed on these malaria-infected mice on Day 4 of their infection when the parasitemia was low.
A compound was considered active against either the sporozoite or the EE stage if no parasites were found in the blood films taken on Day 5 or on subsequent blood films taken weekly for 31 days.
Mice alive on Day 31 with no parasites found in any blood films were considered cured.

[2] = tested on: P. cynomolgi sporozoites; assay: Oral causal prophylactic assay in Rhesus monkey (compound 3 IM; 4b and 3c PO); format: in vivo, Plasmodium cynomolgi; details: per monkey
Method: To test the causal prophylactic intramuscular potency of the purified isomer of compound 3 and oral potency of two carbamate derivatives of 2-guanidinylimidazolidinedione (4b and 3c) the following assay was conducted.
Fourteen rhesus monkeys were issued.
A donor monkey was inoculated intravenously with 1.3 ml, freshly-thawed frozen infected red blood cell (DA310). When the monkey developed gametocytemia, mosquito feedings were conducted on days 15 and 16 after inoculation. The donor monkey was treated with intramuscular chloroquine hydrochloride (CQ) 10 mg/kg, once a day after the second mosquito feeding and continued for 6 days.
On day 0 of the beginning of the assay, each of the 14 monkeys was inoculated intravenously with 1-ml inoculum of suspension containing about 1.0×10^6 P. cynomolgi sporozoites harvested from Anopheles dirus mosquitoes' salivary glands previously fed on the donor monkey.
All monkeys received treatment on days −1, 0 and 1. The control monkeys (Group 1) received HECT orally and the experimental animals received testing compound intramuscularly (Groups 2 and 3) or orally (Groups 4 to 7).

[3] = Solubility and characteristics of the compounds in the dosing vehicle; format: physicochemical; details: vehicle DMSO
[4] = tested on: Plasmodium falciparum; details: cited from earlier work
[5] = tested on: P. vivax; details: cited from earlier work

| SMILES | Minimum Protective Dose Against P. yoelii [1] | Day of Parasitemia ([2]; 10 mg/kg IM) | Result ([2]; 10 mg/kg IM, 10 mg/kg) | Day of Parasitemia ([2]; 30 mg/kg IM, 30 mg/kg) | Result (delay the parasitemia) ([2]; 30 mg/kg IM, 30 mg/kg) | Sediment ([3]; dosage 10 mg/kg) | Solubility ([3]; dosage 10 mg/kg) | Supernatant ([3]; dosage 10 mg/kg) | Sediment ([3]; dosage 30 mg/kg) | Solubility ([3]; dosage 30 mg/kg) | Supernatant ([3]; dosage 30 mg/kg) | melting point | Activity against primary exoerythrocytic forms [4] | Activity against primary exoerythrocytic forms [5] |
| --- | --- | --- | --- | --- | --- | --- | --- | --- | --- | --- | --- | --- | --- | --- |
| CC(C)N1C(=O)C(=O)N=C1NC(=N)Nc1ccc(Cl)c(Cl)c1 [Compound 3, N-(3,4-dichlorophenyl)-N′-(1-isopropyl-4,5-dioxoimidazolidin-2-ylidene)guanidine] | >160 mg/kg | 8 days | not protected; also recorded: No activity | 15 days and 20 days | 7 days and 12 days and did not completely protect the monkeys from malaria | None | Good | Yellow clear | None | Moderate | Yellow turbid | 230 °C and 233 °C | – | – |
| CC(C)NC(=N)NC(=N)Nc1ccc(Cl)c(Cl)c1 [chlorproguanil] | – | – | – | – | – | – | – | – | – | – | – | – | highly active | highly active |
